Patent US20250313555A1, “2-SUBSTITUTED THIAZOLE AND BENZOTHIAZOLE COMPOSITIONS AND METHODS AS DUX4 INHIBITORS” (ALTAY THERAPEUTICS, INC., priority 2022, published 2025)

Test system: MB200 cells
Experiment: Cell cytotoxicity 50 assay (CC50), MB200 cells, cell titer glo
Type: cell-based
Details: 72 h
Procedure, shortened: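 MB200 cells were seeded at 10 k/well in F10 medium with bFGF, 15% FBS and dexamethasone. Cells were exposed to serially diluted compound (from 10 mM stock) in triplicate for 72 h at 37 °C. Viability was read by CellTiter-Glo luminescence and CC50 was fitted.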

Compound	CC50 [µM]
O=C(CCCN1C(=O)CCC1=O)Nc1nc2ccccc2s1 [Compound 108]	> 10
O=C(CCCN1C(=O)CCC1=O)N[C@H]1CC[C@H](c2nc3ccccc3s2)C1 [Compound 161]	> 10

Test system: HEK
Experiment: Cell cytotoxicity 50 assay (CC50), HEK cells
Type: cell-based
Details: not given
Procedure, shortened: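 Starting from a 10 mM drug solution, serial dilutions were made in medium and added onto HEK cells, which were then incubated 72 h at 37 °C. Viability was read as CellTiter-Glo luminescence after 5 min, and CC50 was obtained by curve fitting.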

Compound	CC50 [µM]
O=C(CCCN1C(=O)CCC1=O)Nc1nc2ccccc2s1 [Compound 108]	> 10
O=C(CCCN1C(=O)CCC1=O)N[C@H]1CC[C@H](c2nc3ccccc3s2)C1 [Compound 161]	> 10

Molecular target: T1, DUX4 (Homo sapiens, UniProt Q9UBX2)
T1 construct: expressed in transfected cells; host or cells: HEK293
T1 sequence (Q9UBX2 whole entry): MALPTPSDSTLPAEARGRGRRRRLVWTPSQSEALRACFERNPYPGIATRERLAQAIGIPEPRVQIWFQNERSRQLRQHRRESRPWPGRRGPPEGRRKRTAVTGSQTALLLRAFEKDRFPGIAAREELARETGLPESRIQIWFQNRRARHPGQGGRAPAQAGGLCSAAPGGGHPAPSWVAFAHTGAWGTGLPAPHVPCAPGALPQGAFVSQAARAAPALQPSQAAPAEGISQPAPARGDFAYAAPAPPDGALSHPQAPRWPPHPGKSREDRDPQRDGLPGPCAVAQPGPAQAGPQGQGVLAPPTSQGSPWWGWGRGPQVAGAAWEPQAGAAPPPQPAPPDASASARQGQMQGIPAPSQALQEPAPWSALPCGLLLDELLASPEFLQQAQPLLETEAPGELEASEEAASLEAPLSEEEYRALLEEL
Experiment: DUX4 EC50 luciferase reporter protocol in transfected HEK293 cells
Type: cell-based
Details: 6 hr
Description: EC50 Protocol This example provides a representative protocol for a single well of a 96-well plate. It can be scaled up as necessary for treatment of multiple wells. For negative controls, a well containing reporter DNA, Renilla DNA, and turbofect (without expression vector) were used. For positive controls, wells containing cells that were not treated with any inhibitor were used. They were transfected with the complete DNA lipid complex as set forth below. The DNA-lipid complex for one well of the 96-well plate is prepared by adding to a tube 100 ng of the transfection factor (TF) expression vector, 100 ng of TF reporter DNA, 10 ng of Renilla reporter DNA, […] Turbofect transfection reagent, and […] of the medium without any serum or penicillin/streptomycin. The combination was mixed by gentle flicking of the tube, and the mixture was pipetted into a well of a 96-well plate. The plate was then gently tapped to spread the combination evenly on the bottom of the well. The well was incubated for 30 min. HEK293 cells were grown until 80% confluent in DMEM supplemented with 10% fetal bovine serum, 1% penicillin streptomycin, and 1% amphotericin B. The adherent cells growing on a 10 cm plate were trypsinized with 1 mL of prewarmed trypsin. Once the cells detached from the plate, 10 mL of medium was added, and the cells were strained through a […] cell strainer. The cells were counted using a mixture of 10 mL cell suspension with 10 mL of trypan blue. Once the total number of cells are counted, a dilution of 150 k/mL was prepared. After incubation of the transfection complex was complete, […] of HEK293s (23.25 k total cells) were gently dispensed on top of the wells containing the 25 mL transfection complex, producing a total volume of about 180 mL. The mixture was then incubated for 24 h. To treat cells with each inhibitor, the inhibitors were prepared in the same growth medium. In a deep well block, the regular medium with serum was added to well 1 (135 mL) and to wells 2 through 10 (100 mL). To the first well was added 15 mL of 10 nM inhibitor. The final concentration of the drug in well 1 was 1 nM. The wells were pipeted up and down, and 50 mL was transferred from well 1 to well 2 (1/3 dilution). The well was mixed, and the seriation dilution was repeated with the remaining wells. Once the serial dilution was complete, using a multichannel pipet, 20 mL of each inhibitor were transferred to designated wells in a 96-well plate. […] Before the assay, a sufficient amount of 1× passive lysis buffer was prepared. The luciferase substrate buffer (Promega) was thawed completely and then mixed with the lyophilized luciferase substrate. The stop buffer (Promega) was also completely thawed. (1) Cell lysis: After treatment of the cells was complete, all the cell media is removed by flipping the 96-well plate over and tapping it dry on a dry paper towel. Immediately afterwards, the 1× passive lysis buffer (25 μL) was added. The plates were then placed on a rocker for 15 minutes at medium speed. (2)Measuring luciferase signal: The luciferase substrate solution for all wells was placed in a solution basin. The luciferase substrate solution was then added to every well (100 μL/well) using a multichannel pipette. The total luminescence was then read immediately using a plate reader. (3)Measuring Renilla signal: The “complete stop solution” was prepared in a solution basin by mixing the buffer with the 50× stop solution substrate (Promega) to make the final 1× solution. The complete stop solution was added to each well (50 μL/well) using a multichannel pipette. The total luminescence was then read immediately using a plate reader. Using a spreadsheet (e.g., Excel), the luciferase signal was divided by the renilla signal to get a relative luciferase unit.

Compound	EC50 [µM]
CC(=O)NCCCC(=O)Nc1nc2ccccc2s1 [Compound 107]	> 10
CC(C)(NC(=O)CCCN1CCCC1=O)c1ccc(-c2nc3ccccc3s2)cc1 [Compound 110]	> 10
CC(=O)NCCCC(=O)N[C@H]1C[C@H](c2nc3ccccc3s2)C1 [Compound 112]	> 10
CC(=O)NCCCC(=O)N[C@H]1C[C@@H](c2nc3ccccc3s2)C1 [Compound 113]	> 10
CC(=O)NCCCC(=O)N[C@@H]1CC[C@H](c2nc3ccccc3s2)C1 [Compound 114]	> 10
CC(=O)NCCCC(=O)N[C@H]1CC[C@H](c2nc3ccccc3s2)C1 [Compound 115]	> 10
O=C(CCCN1CCCC1=O)NC1CCCC1c1nc2ccccc2s1 (stereo not drawn) [Compound 117]	> 10
O=C(CCCN1CCCC1=O)NCCCc1nc2ccccc2s1 [Compound 118]	> 10
O=C(Cc1ccc(-c2nc3ccccc3s2)cc1)NCCN1CCCC1=O [Compound 119]	> 10
C=C(C)NCCC(=C)Nc1cc(C)cc(Cc2nc3ccccc3s2)c1 [Compound 120]	> 10
CC(=O)NCCCC(=O)Nc1nc(-c2ccccc2)cs1 [Compound 126]	> 10
CC(=O)NC1CCC(C(=O)Nc2nc3ccccc3s2)C1 (stereo not drawn) [Compound 131]	> 10
CC(=O)NC1CCC(C(=O)N[C@H]2CC[C@H](c3nc4ccccc4s3)CC2)C1 (stereo partly drawn) [Compound 134]	> 10
CC(=O)NCCCc1nc(CCCC(=O)Nc2ccc(-c3nc4cc(F)ccc4s3)cc2)co1 [Compound 138]	> 10
CN(C(=O)CCCN1C(=O)CCC1=O)c1ccc(-c2nc3cc(F)ccc3s2)cc1 [Compound 144]	> 10
CC(=O)NCCCNC(=O)c1ccc(-c2nc3ccccc3s2)o1 [Compound 149]	> 10
O=C(CCCCN1C(=O)CCC1=O)N[C@H]1CC[C@@H](c2nc3ccccc3s2)CC1 [Compound 151]	> 10

Compound	EC50 [µM]
O=C(CCCc1cccnc1)NC1CCC(c2nc3ccccc3s2)C1 (stereo not drawn) [Compound 157]	> 10
O=C(CCCN1C(=O)CCC1=O)NC1CCC(Cc2nc3ccccc3s2)C1 (stereo not drawn) [Compound 158]	> 10
O=C(CCCN1C(=O)CCC1=O)N[C@@H]1CC[C@@H](c2nc3ccccc3s2)C1 [Compound 162]	> 10
O=C(CCCc1cccnc1)N[C@H]1CC[C@@H](c2nc3ccccc3s2)CC1 [Compound 163]	> 10
O=C(CCCc1cccnc1)N[C@H]1CC[C@H](c2nc3ccccc3s2)CC1 [Compound 164]	> 10
CN(C(=O)CCCN1C(=O)CCC1=O)c1ccc(Cc2nc3ccccc3s2)cc1 [Compound 169]	> 10
CC(=O)NCCCC(=O)N[C@H]1CC[C@@H](Cc2nc3ccccc3s2)CC1 [Compound 171]	> 10
CC(=O)NCCCC(=O)N[C@H]1CC[C@H](Cc2nc3ccccc3s2)CC1 [Compound 172]	> 10
CC(=O)NCCCNC(=O)C12CCC(c3nc4ccccc4s3)(CC1)CC2 [Compound 173]	> 10
CN(C(=O)CCC1CCC(=O)N1)c1ccc(-c2nc3ccccc3s2)cc1 (stereo not drawn) [Compound 177]	> 10
O=C(CCC1CCC(=O)N1)Nc1ccc(Cc2nc3ccccc3s2)cc1 (stereo not drawn) [Compound 178]	> 10
O=C(CCC1CCC(=O)N1)Nc1ccc(-c2nc3ccccc3s2)o1 (stereo not drawn) [Compound 179]	> 10
CC(=O)N[C@@H]1CC[C@H](C(=O)Nc2nc3ccccc3s2)C1 [Compound 182]	> 10
CC(=O)N[C@H]1CC[C@@H](C(=O)Nc2nc3ccccc3s2)C1 [Compound 183]	> 10
CC(=O)N[C@@H]1CC[C@@H](C(=O)Nc2nc3ccccc3s2)C1 [Compound 185]	> 10
CC(=O)NCCCNC(=O)c1cc(C#N)cc(-c2nc3cc(F)ccc3s2)c1 [Compound 188]	> 10

Next, values leading:

EC50 [µM]	Compound
> 10	O=C(NCCCN1C(=O)CCC1=O)c1ccc(-c2nc3ccccc3s2)cc1 [Compound 7]
> 10	O=C(CCN1CCCC1=O)Nc1ccc(Cc2nc3ccccc3s2)cc1 [Compound 8]
> 10	O=C(NCCc1cncnc1)c1ccc(-c2nc3ccccc3s2)cc1 [Compound 11]
> 10	O=C(NCCN1C(=O)CCC1=O)c1ccc(-c2nc3ccccc3s2)cc1 [Compound 22]
> 10	CC(=O)CCCCC(=O)Nc1ccc(-c2nccs2)cc1 [Compound 23]
> 10	CC(=O)NCCCC(=O)NC1CCC(c2nc3ccccc3s2)CC1 (stereo not drawn) [Compound 28]
> 10	O=C(CCCc1cnco1)Nc1ccc(Cc2nc3ccccc3s2)cc1 [Compound 66]
> 10	CC(=O)NCCCC(=O)Nc1ccc(-c2nccs2)cc1 [Compound 70]
> 10	CC(=O)NCCCC(=O)Nc1cccc(-c2nc3ccccc3s2)c1 [Compound 71]
> 10	CC(=O)NCCCC(=O)Nc1cc(C)cc(-c2nc3ccccc3s2)c1 [Compound 72]
> 10	O=C(CCCN1C(=O)CCC1=O)NC1CC(c2nc3ccccc3s2)C1 (stereo not drawn) [Compound 89]
> 10	O=C(CCCN1C(=O)CCC1=O)NC1CCC(c2nc3ccccc3s2)C1 (stereo not drawn) [Compound 90]
> 10	O=C(CCCN1C(=O)CCC1=O)NCCCc1nc2ccccc2s1 [Compound 91]
> 10	O=C(CCCN1C(=O)CCC1=O)NC1CCCC1c1nc2ccccc2s1 (stereo not drawn) [Compound 92]
> 10	O=C(CCCN1C(=O)CCC1=O)N[C@H]1C[C@@H](c2nc3ccccc3s2)C1 [Compound 97]
> 10	CC(=O)NCCCC(=O)Nc1cc(Cl)cc(-c2nc3ccccc3s2)c1 [Compound 101]
> 10	CC(=O)NCCCC(=O)Nc1cc(Cl)cc(-c2nc3cc(F)ccc3s2)c1 [Compound 102]
> 10	CC(=O)NCCCC(=O)NCCCc1nc2ccccc2s1 [Compound 106]
> 10	O=C(CCCN1C(=O)CCC1=O)Nc1nc2ccccc2s1 [Compound 108]
> 10	O=C(CCCN1C(=O)CCC1=O)N[C@H]1CC[C@H](c2nc3ccccc3s2)C1 [Compound 161]
